Here are results for eleven molecules from patent publication US8372865B2, “Dihydropyridone amides as P2X7 modulators” (Roche Palo Alto LLC, priority 2008, dated 2013).

The assay addresses T1, P2X7 receptor (UniProt Q99572).
T1 sequence (Q99572 1-595): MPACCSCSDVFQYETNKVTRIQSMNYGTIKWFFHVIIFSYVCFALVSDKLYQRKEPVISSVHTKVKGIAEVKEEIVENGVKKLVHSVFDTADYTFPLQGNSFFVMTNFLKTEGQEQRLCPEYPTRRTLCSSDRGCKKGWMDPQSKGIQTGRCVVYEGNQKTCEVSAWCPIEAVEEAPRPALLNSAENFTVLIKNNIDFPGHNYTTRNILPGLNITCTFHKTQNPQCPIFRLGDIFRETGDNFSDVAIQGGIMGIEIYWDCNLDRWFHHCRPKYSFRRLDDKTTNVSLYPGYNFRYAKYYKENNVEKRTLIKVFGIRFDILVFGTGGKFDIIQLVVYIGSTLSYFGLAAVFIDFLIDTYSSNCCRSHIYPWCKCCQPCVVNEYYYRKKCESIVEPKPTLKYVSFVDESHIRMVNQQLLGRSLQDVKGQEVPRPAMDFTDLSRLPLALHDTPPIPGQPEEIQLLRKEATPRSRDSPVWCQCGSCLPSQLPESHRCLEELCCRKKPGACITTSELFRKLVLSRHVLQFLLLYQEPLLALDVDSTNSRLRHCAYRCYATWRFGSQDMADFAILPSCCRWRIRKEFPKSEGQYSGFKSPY
The assay can be described thus: pKi of Table 1 (assay not stated). Format: cell-based. The procedure: Intracellular Calcium Flux (FLIPR) Assay
Stock solutions of compounds were prepared from powders as a 10 mM DMSO stock solution. These solutions were stored at RT during the two week period of these experiments to prevent freeze-thaw of the DMSO stocks. The DMSO stocks were added to the appropriate assay buffer at a concentration of 10 μM, and then diluted serially to the final concentrations that were tested. […] The aqueous solutions of compounds as well as ATP (Sigma A7699) and BzATP (Sigma B6396) were prepared fresh for each day of experiment.
1321N1 cells stably expressing the full length human P2X7 gene (1321N1-hP2X7) and HEK293 cells stably expressing the full length rat P2X7 gene (HEK293-rP2X7) were obtained from the Roche Cell Culture Facility. 1321N1-hP2X7 cells were grown in Dulbecco's Modified Eagle's Medium (DMEM) high glucose supplemented with 10% FBS and 250 μg/mL G418. HEK293-rP2X7 cells were grown in DMEM/F-12 supplemented with 10% FBS, 1 mM CaCl2, 2 mM MgCl2, 2 mM L-Glutamine and 500 μg/ml G418. Cells were split such that they never became>70% confluent.
On the day prior to the experiment, 1321N1-hP2X7 or HEK293-rP2X7 cells were released into suspension with calcium-free PBS+Versene and washed by centrifugation with calcium-free PBS to remove the Versene. Cells were resuspended in growth medium at a density of 2.5×10^5 cells/mL and seeded into black walled, clear bottom 96 well plates (50,000 cells/well) approximately 18 hr prior to intracellular calcium flux experiments.
On the day of the experiment, plates were washed with FLIPR buffer (calcium- and magnesium-free Hank's Balanced Salt Solution (HBSS) supplemented with 10 mM Hepes, 2.5 mM probenecid and 2 mM calcium chloride) using a BIO-TEK 96 channel plate washer and incubated with […] fluo-3 dye at 37° C. for one hr. The dye was then removed by plate washing and the cells were allowed to equilibrate for 20 min at room temperature with antagonist or vehicle (FLIPR buffer). Agonist (100 μM BzATP final concentration for hP2X7; 5 μM BzATP final concentration or rP2X7) was added online with the FLIPR and fluorescence measurements made at 1 sec intervals for 60 sec followed by 3 sec intervals for a further 4 min (5 min total). A final addition of 5 μM ionomycin was made and the maximal BzATP-evoked fluorescence normalized to the maximal ionomycin-evoked fluorescence.

Molecules are shown by their SMILES.

As a reminder, the pKi is the negative decadic logarithm of the Ki, by convention in mol/L. Lower therefore signals a large Ki.

`CCc1cc2c(cc1NC(=O)C1=CNC(=O)C[C@H]1c1cccc(F)c1)N(C)C(=O)CO2` [Compound 26, (S)-4-(3-Fluoro-phenyl)-6-oxo-1,4,5,6-tetrahydro-pyridine-3-carboxylic acid (7-ethyl-4-methyl-3-oxo-3,4-dihydro-2H-benzo[1,4]oxazin-6-yl)-amide] showed a pKi of 7.125.
Under `Cc1ccc2ncccc2c1NC(=O)C1=CNC(=O)C[C@H]1c1ccc(F)cc1` [Compound 27, (S)-4-(4-Fluoro-phenyl)-6-oxo-1,4,5,6-tetrahydro-pyridine-3-carboxylic acid (6-methyl-quinolin-5-yl)-amide] stands 7.64.
Under `Cc1cc2cnn(CCO)c2cc1NC(=O)C1=CNC(=O)C[C@H]1c1ccc(F)cc1` [Compound 28, (S)-4-(4-Fluoro-phenyl)-6-oxo-1,4,5,6-tetrahydro-pyridine-3-carboxylic acid [1-(2-hydroxy-ethyl)-5-methyl-1H-indazol-6-yl]-amide] stands 7.645; under `Cc1cc2cc(C)n(CCO)c2cc1NC(=O)C1=CNC(=O)C[C@H]1c1ccc(F)cc1` [Compound 29, (S)-4-(4-Fluoro-phenyl)-6-oxo-1,4,5,6-tetrahydro-pyridine-3-carboxylic acid [1-(2-hydroxy-ethyl)-2,5-dimethyl-1H-indol-6-yl]-amide], 6.285; under `Cc1cc2c(C)cn(CCO)c2cc1NC(=O)C1=CNC(=O)C[C@H]1c1ccc(F)cc1` [Compound 30, (S)-4-(4-Fluoro-phenyl)-6-oxo-1,4,5,6-tetrahydro-pyridine-3-carboxylic acid [1-(2-hydroxy-ethyl)-3,5-dimethyl-1H-indol-6-yl]-amide], 6.89.
Next, `CCc1cc2c(cc1NC(=O)C1=CNC(=O)C[C@H]1c1ccc(F)cc1)N(C)C(=O)CC2` [Compound 31, (S)-4-(4-Fluoro-phenyl)-6-oxo-1,4,5,6-tetrahydro-pyridine-3-carboxylic acid (6-ethyl-1-methyl-2-oxo-1,2,3,4-tetrahydro-quinolin-7-yl)-amide]: 6.805.
For the molecule `CC1=C(C(=O)Nc2ccc3[nH]ncc3c2)C(c2ccc(F)cc2)CC(=O)N1` (centres unmarked) [Compound 32, 4-(4-Fluoro-phenyl)-2-methyl-6-oxo-1,4,5,6-tetrahydro-pyridine-3-carboxylic acid (1H-indazol-5-yl)-amide], the pKi was found to be 5.14.
`Cc1cc2c(cc1NC(=O)C1=CNC(=O)C[C@H]1c1ccc(F)cc1)N(CCO)C(=O)CC2` [Compound 33, (S)-4-(4-Fluoro-phenyl)-6-oxo-1,4,5,6-tetrahydro-pyridine-3-carboxylic acid [1-(2-hydroxy-ethyl)-6-methyl-2-oxo-1,2,3,4-tetrahydro-quinolin-7-yl]-amide] had a pKi of 6.285.
Under `O=C1C[C@@H](c2ccc(F)cc2)C(C(=O)Nc2cc3c(cc2Br)N(CCO)C(=O)CC3)=CN1` [Compound 34, (S)-4-(4-Fluoro-phenyl)-6-oxo-1,4,5,6-tetrahydro-pyridine-3-carboxylic acid [7-bromo-1-(2-hydroxy-ethyl)-2-oxo-1,2,3,4-tetrahydro-quinolin-6-yl]-amide] stands 6.785; under `CCc1c(NC(=O)C2=CNC(=O)C[C@H]2c2ccc(F)cc2)ccc2nc(C)ccc12` [Compound 35, (S)-4-(4-Fluoro-phenyl)-6-oxo-1,4,5,6-tetrahydro-pyridine-3-carboxylic acid (5-ethyl-2-methyl-quinolin-6-yl)-amide], 7.18.
Under `Cc1cc2c(cc1NC(=O)C1=CNC(=O)C[C@H]1c1ccc(F)cc1)NC(=O)CO2` [Compound 36, (S)-4-(4-Fluoro-phenyl)-6-oxo-1,4,5,6-tetrahydro-pyridine-3-carboxylic acid (7-methyl-3-oxo-3,4-dihydro-2H-benzo[1,4]oxazin-6-yl)-amide] stands 5.56.
